Measured values reported in article PMC6646794 (Biochimica et Biophysica Acta. Molecular Cell Research, 2019).
Where two headings read alike, the source gives them in different places.

What was measured:
TRPM2 W1355A I1368A = experiment: Whole cell patch-clamp, TRPM2 W1355A I1368A in HEK293 cells; type: cell-based, human
Description: (§1) HEK293 cells were kept at 37 °C and 5% CO2 in DMEM with 4.5 g/l glucose and GlutaMax-I (Gibco) supplemented with 10% (v/v) fetal bovine serum (Biochrom). Cells were split 1:10 to 1:20 twice a week.
The mutations W1355A and I1368A were inserted into the eukaryotic expression vector for TRPM2 (pIRES2-EGFP-TRPM2) by two sequential rounds of QuikChange mutagenesis using the following primer pairs: for W1355A: 5′-[…]-3′ and 5′-[…]-3′, for I1368A: 5′- […]-3′ and 5′-[…]-3′. The full open reading frame was confirmed by DNA sequencing (Eurofins MWG Operon, Ebersberg, Germany).
For patch clamp experiments wild type HEK293 cells were transfected with expression vectors for either wild type TRPM2 or TRPM2 W1355A/I1368A 24 h before the experiments. […] The intracellular solution contains 200 nM free Ca^2+ (calculated using MaxChelator, http://maxchelator.stanford.edu/CaEGTA-NIST.htm). Whole cell currents were recorded using a HEKA EPC-10 amplifier and PatchMaster software (HEKA Elektronik, Lamprecht, Germany). […]
For statistical analysis GraphPad Prism (v7.04 and v8.0.1; GraphPad Software) was used. […] After transformation all groups were normally distributed as assessed by D'Agostino & Pearson normality test. […]

wild-type TRPM2 = experiment: Whole cell patch-clamp, wild-type TRPM2 in HEK293 cells; type: cell-based, human; conditions: for whole cell current at 37 °C / whole cell current at room temperature: 200 nM free Ca2+, maximum current at +15 mV, median, 8–13 cells per condition; for effect of raising temperature to 37 °C on current: one-way ANOVA, Bonferroni
Description: as §1
For patch clamp experiments wild type HEK293 cells were transfected with expression vectors for either wild type TRPM2 or TRPM2 W1355A/I1368A 24 h before the experiments. To generate the transfection complex 2.5 μg of TRPM2 expression vector and 5 μl jetPEI reagent (PolyPlus Transfection, Strasbourg, France) were incubated for 30 min in a total volume of 250 μl (150 mM NaCl). Cells were detached from the culture bottle and adjusted to a density of 2.5 × 10^5 cells/ml. After addition of the transfection complex cells were seeded at low density to 35 mm cell culture dishes. Directly before the experiment the culture medium was replaced by bath solution (in mM: 140 N‑methyl‑D‑glucamine (NMDG), 5 KCl, 3.3 MgCl2, 1 CaCl2, 5 D‑glucose, 10 HEPES, adjusted to pH 7.4 with HCl). The replacement of Na^+ in the bath solution by NMDG (for which TRPM2 is impermeable) prevents cell rupture due to excessive current and the characteristic IV curve helps to distinguish activation of the nonselective cation channel from cells becoming leaky. […] The intracellular solution contains 200 nM free Ca^2+ (calculated using MaxChelator, http://maxchelator.stanford.edu/CaEGTA-NIST.htm). Whole cell currents were recorded using a HEKA EPC-10 amplifier and PatchMaster software (HEKA Elektronik, Lamprecht, Germany). To record TRPM2 activity, repetitive voltage ramps from −85 mV to +20 mV over 140 ms were applied every 5 s for 450 s. Before and in between ramps cells were clamped at −50 mV. Series resistance compensation was set to 70%. For temperature control the 35 mm dishes were placed inside an open culture dish incubator (DH-35i, Warner Instruments) connected to a single channel heater controller (TC-324C, Warner Instruments). Cells were continuously perfused at a flow rate of 0.3 ml/min with bath solution pre-warmed in a water bath.
For statistical analysis GraphPad Prism (v7.04 and v8.0.1; GraphPad Software) was used. Currents obtained from whole cell recordings tend to be positively skewed and were therefore log-transformed to achieve normality. After transformation all groups were normally distributed as assessed by D'Agostino & Pearson normality test. Data were tested by one-way ANOVA. p values from post-hoc comparisons between groups were adjusted for multiple comparison using Bonferroni correction. A significance level of α = 0.05 was adopted.

TRPM2 = conditions: cited from earlier work
NudT9H domain = experiment: Thermal unfolding of NudT9H by nDSF; type: binding, human; conditions: NudT9H with ADPR versus without
Description: The intrinsic fluorescence at 330 and 350 nm after excitation at 280 nm is used to monitor the fluorescence change upon heat unfolding. […] Buffer conditions were 25 mM Tris (pH 7.4), 150 mM NaCl, 2 mM CaCl2, 10% (v/v) glycerol. The first derivative of the unfolding curves was used to determine the transition midpoint. Simultaneously, protein aggregation was followed by light scattering.

[1] = room temperature, 100 μM agonist in pipette
[2] = wild-type TRPM2, 100 μM agonist in pipette, room temperature to 37 °C

Compound | current compared to ADPR (TRPM2 W1355A I1368A; 100 μM in pipette, room temperature and 37 °C) | whole cell current at 37 °C (wild-type TRPM2; 100 μM agonist in pipette) | whole cell current at room temperature (wild-type TRPM2; [1]) | effect of raising temperature to 37 °C on current (wild-type TRPM2; [2]) | current compared to ADPR (wild-type TRPM2; wild-type TRPM2, 100 μM in pipette, room temperature, compared with 100 μM ADPR) | TRPM2 current compared with ADPR (TRPM2; basal Ca2+ concentrations, ref [22]) | Ca2+ sensitivity of TRPM2 activation (TRPM2; ref [22]) | TRPM2 agonism (TRPM2; ref [21]) | effect of raising temperature to 37 °C on current (TRPM2 W1355A I1368A; 100 μM agonist in pipette, room temperature to 37 °C, one-way ANOVA, Bonferroni) | increase of current from room temperature to 37 °C (wild-type TRPM2; 100 μM agonist in pipette, room temperature to 37 °C, median values) | stabilizing effect on NudT9H (NudT9H domain) | TRPM2 agonism (TRPM2; ref [20]) | Ca2+ dependence of TRPM2 activation by ADPR (TRPM2; removal of both intra- and extracellular Ca2+, ref [15]) | effect of temperature >35 °C on evoked TRPM2 current (TRPM2; temperatures >35 °C, ref [17])
Nc1ncnc2c1ncn2[C@H]1C[C@H](O)[C@@H](COP(=O)(O)OP(=O)(O)OC[C@H]2OC(O)[C@H](O)[C@@H]2O)O1 (some centres unmarked) [2′-deoxy-ADPR, 2′-deoxy-adenosine diphosphate (ADP)-ribose] | did not significantly differ from that with ADPR | 1.4 nA | 4.5 nA | did not significantly increase | significantly higher at room temperature | elicits much higher TRPM2 currents than ADPR | less sensitive to Ca^2+ | – | – | – | – | – | – | –
ADP-ribose-2′-phosphate [2′-P-ADPR] | – | – | – | – | – | – | – | acts as partial agonist | – | – | – | – | – | –
Adenosine diphosphate ribose [ADPR] | – | 2.2 nA | 150 pA | significantly increased | – | – | – | – | no significant increase | > 10 fold | ruling out a stabilizing effect of ADPR on NudT9H | activates the channel | completely prevents activation of the channel by ADPR | significantly potentiates the current evoked by ADPR
